Measurements reported in patent US5166214A, “Use of imidazoles for the treatment of atherosclerosis” (priority 1990, dated 1992).
Structures can show the parent of a compound that is named as a salt. Where two headings read alike, the source gives them in different places.

How the values were obtained:
[1] = tested on: hypercholesterolemic (cholesterol-fed) hamsters; test: Antihypercholesterolemic activity in cholesterol-fed hamsters; assay type: in vivo, hamster; settings: two weeks; for Serum Cholesterol, Treated: mean ± SEM, n = 9-10; for Serum Cholesterol Decrease: vs control
Protocol: C. Assay of Antihypercholesterolemic Activity in Cholesterol-fed Hamsters
Inhibition of ACAT activity in the gut reduces the absorption of cholesterol in cholesterol-fed animals. Hamsters weighing approximately 100 g, were maintained on a diet supplemented with 0.8% cholesterol. The treatment group received 1-100 mg/kg/day, p.o., of the test compound dissolved in 500 μl of corn oil for a period of two weeks. The control group were pair-fed to the treatment group and were dosed with 500 μl of the corn oil vehicle. At sacrifice, the hamsters were anesthetized with CO2 and exsanguinated via cardiac puncture. Total serum cholesterol was determined on a Du Pont aca® IV. The data were expressed in terms of mg cholesterol per 100 ml of serum (mg %).

[2] = tested on: murine macrophage-like cell line J774.A1; test: Inhibition of cholesterol esterification in mammalian cells (macrophage assay); assay type: cell-based
Summary of the method: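 Murine J774.A1 macrophages at 37 °C received 34 μg acetylated human LDL in 10% FBS-DMEM from 24 h, compound in DMSO at 41 h, then a 0.1 mM 14C-oleic acid–BSA pulse from 43 to 45 h. Labelled cholesteryl ester was separated by TLC, counted and normalised to Lowry protein.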

[3] = molecular target: T1, Acyl-CoA: Cholesterol Acyltransferase (ACAT) (Rattus norvegicus, UniProt Q7TQM4); test: Inhibition of acyl-CoA: cholesterol acyltransferase (ACAT) in hepatic microsomes (in vitro); assay type: biochemical, rat (male Sprague Dawley)
T1 construct: Microsomes were obtained by differential centrifugation; from tissue; host or cells: liver microsomes of male Sprague Dawley rats
T1 sequence (Q7TQM4 1-524): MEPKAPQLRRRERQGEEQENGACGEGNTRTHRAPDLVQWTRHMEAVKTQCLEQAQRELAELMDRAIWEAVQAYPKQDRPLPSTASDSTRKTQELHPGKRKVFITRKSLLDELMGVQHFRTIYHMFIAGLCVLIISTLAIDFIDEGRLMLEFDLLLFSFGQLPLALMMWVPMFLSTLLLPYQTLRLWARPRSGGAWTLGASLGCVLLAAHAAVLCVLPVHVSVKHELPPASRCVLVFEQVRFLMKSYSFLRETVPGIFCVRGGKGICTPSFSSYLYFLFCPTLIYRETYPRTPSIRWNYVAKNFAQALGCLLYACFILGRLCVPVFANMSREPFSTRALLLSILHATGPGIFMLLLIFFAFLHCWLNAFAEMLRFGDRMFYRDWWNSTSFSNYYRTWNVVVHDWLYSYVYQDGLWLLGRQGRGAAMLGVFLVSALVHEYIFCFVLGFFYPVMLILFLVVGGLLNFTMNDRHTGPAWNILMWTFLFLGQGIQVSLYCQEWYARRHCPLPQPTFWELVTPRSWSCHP
Protocol: A. Assay of the Inhibition of Acyl-CoA: Cholesterol Acyltransferase (ACAT) in Hepatic Microsomes
The ability of the compounds to inhibit ACAT, the enzyme responsible for the intracellular synthesis of cholesteryl esters, was tested as follows. Male Sprague Dawley rats weighing 150-300 g, were fed rat chow ad libitum. The animals were fasted for twenty-four hours prior to being sacrificed by decapitation. The livers were perfused in situ with 50 ml of cold 0.25M sucrose, excised, and homogenized in three volumes of 0.1M phosphate buffer, pH 7.4, that contained 0.5 mM EDTA (ethylenediaminetetraacetic acid), 1.0 mM glutathione, 0.25M sucrose and […]. Microsomes were obtained by differential centrifugation; the supernatant from an initial spin at 15,000×g for 15 minutes was centrifuged at 105,000×g for 1 hour to pellet the microsomes. The microsomes were suspended in homogenization buffer, reisolated by centrifugation, and stored at -70° C. Microsomes were used within one month of preparation.
The control assay in a final volume of 200 μl consisted of 200 μg of microsomal protein, 75 μM ^14 C-oleoyl-CoA (10,000 dpm/nmol) in 0.1M phosphate, pH 7.4, that contained 1 mM glutathione. Compounds were added in 5 μl of DMSO (dimethyl sulfoxide) and additional controls were run with DMSO only. All components, except the oleoyl-CoA, were preincubated for 15 min. at 37° C. prior to the initiation of the reaction by the addition of oleoyl-CoA. The assay was terminated after 10 min by the addition of 4 ml of chloroform:methanol (2:1, v/v). 20,000 dpm of ^3 H-cholesteryl oleate and 10 μg of unlabeled cholesteryl oleate and oleic acid were added as an internal standard and carriers, respectively. After allowing 10 min. for lipid extraction, the samples were centrifuged at 1,000×g for 10 min. to separate the solvent layers. The chloroform layer containing the neutral lipids was spotted onto a Baker SI250-Pa silica gel TLC plate and the plate developed using a hexane: diethyl ether: acetic acid (170:30:1 v/v/v) mobile phase. The lipids were visualized by their interaction with iodine vapor and the cholesteryl ester spot was scraped into a scintillation vial and counted.

[4] = J774.A1 macrophages loaded with ac-LDL, 14C-oleic acid, read-out: Cholesterol Esterification IC50
[5] = rat hepatic microsomes, 75 μM 14C-oleoyl-CoA, pH 7.4, 37° C., read-out: In Vitro ACAT IC50
[6] = In Vitro ACAT IC50, rat hepatic microsomes, 75 μM 14C-oleoyl-CoA, pH 7.4, 37° C.

CCCCCCCN(CCCCCSc1nc(-c2ccccc2)c(-c2ccccc2)[nH]1)C(=O)Nc1ccc(F)cc1F [Example 1, N'-(2,4-difluorophenyl)-N-[5-(4,5-diphenyl-1H-imidazol-2-ylthio)pentyl]-N-heptylurea]
Serum Cholesterol, Treated ([1]; 1 mg/kg/day p.o., control 400 ± 25): 295 ± 12 mg % | Serum Cholesterol Decrease ([1]; 1 mg/kg/day p.o.): 26% | Serum Cholesterol, Treated ([1]; 3 mg/kg/day p.o., control 381 ± 17): 279 ± 16 mg % | Serum Cholesterol Decrease ([1]; 3 mg/kg/day p.o.): 27% | Serum Cholesterol, Treated ([1]; 10 mg/kg/day p.o., control 371 ± 7): 201 ± 12 mg % | Serum Cholesterol Decrease ([1]; 10 mg/kg/day p.o.): 46% | Serum Cholesterol, Treated ([1]; 30 mg/kg/day p.o., control 368 ± 15): 197 ± 11 mg % | Serum Cholesterol Decrease ([1]; 30 mg/kg/day p.o.): 46% | Serum Cholesterol, Treated ([1]; 100 mg/kg/day p.o., control 400 ± 17): 62 ± 8 mg % | Serum Cholesterol Decrease ([1]; 100 mg/kg/day p.o.): 60% | IC50 [2, 4]: 1000 nM

CCCCCCCN(CCCCCSc1nc(-c2ccc(OC)cc2)c(-c2ccc(OC)cc2)[nH]1)C(=O)Cc1ccc(F)cc1F [Example 351, N-[5-[4,5-bis(4-methoxyphenyl)-1H-imidazol-2-ylthio]pentyl]-2,4-difluoro-N-heptylbenzeneacetamide]
IC50 [3, 5]: 250 nM | IC50 [2, 4]: 40 nM

CCCCCCCN(CCCC)CCCCCSc1nc(-c2ccccc2)c(-c2ccccc2)[nH]1 [Example 352]
IC50 [3, 5]: 300 nM | IC50 [2, 4]: 2200 nM

CCCCCCCN(CCCCCSc1nc(-c2ccc(OC)cc2)c(-c2ccc(OC)cc2)[nH]1)CCc1ccc(F)cc1F [Example 353, N-[5-[4,5-bis(4-methoxyphenyl)-1H-imidazol-2-ylthio]pentyl]-2,4-difluoro-N-heptylbenzeneethaneamine]
IC50 [3, 5]: 240 nM | IC50 [2, 4]: 80 nM

CCCCCCCN(CCCCCSc1nc(-c2ccc(N(C)C)cc2)c(-c2ccc(N(C)C)cc2)[nH]1)C(=O)CC1CCCCC1 [Example 354]
IC50 [3, 5]: 50 nM | IC50 [2, 4]: 20 nM

CCCCCCCN(CCCCCSc1nc(-c2ccc(OC)cc2)c(-c2ccc(OC)cc2)[nH]1)C(=O)CC1CCCCC1 [Example 355, N-[5-[4,5-bis(4-methoxyphenyl)-1H-imidazol-2-ylthio]pentyl]-N-heptylcyclohexaneacetamide]
IC50 [3, 5]: 10 nM | IC50 [2, 4]: 30 nM

CCCCCCCN(CCCCCSc1nc(-c2ccccc2)c(-c2ccccc2)[nH]1)C(=O)OCC(C)C [Example 403, (2-Methylpropyl) [5-(4,5-diphenyl-1H-imidazol-2-ylthio)pentyl]heptylcarbamate]
IC50 [3, 5]: 35 nM | IC50 [2, 4]: 500 nM

CCCCCCCN(CCCCCSc1nc(-c2ccccc2)c(-c2ccccc2)[nH]1)C(=O)OCC [Example 404, Ethyl [5-(4,5-diphenyl-1H-imidazol-2-ylthio)pentyl]heptylcarbamate]
IC50 [3, 5]: 33 nM | IC50 [2, 4]: 500 nM

CCCCCCCCOC(=O)N(CCCCCCC)CCCCCSc1nc(-c2ccccc2)c(-c2ccccc2)[nH]1 [Example 405, Octyl [5-(4,5-diphenyl-1H-imidazol-2-ylthio)pentyl]heptylcarbamate]
IC50 [3, 5]: 500 nM | IC50 [2, 4]: 3900 nM

CCCCCCCN(CCCCCSc1nc(-c2ccccc2)c(-c2ccccc2)[nH]1)C(=O)Oc1ccc(F)cc1 [Example 406, (4-fluorophenyl)[5-(4,5-diphenyl-1H-imidazol-2-ylthio)pentyl]heptylcarbamate]
IC50 [3, 6]: 10 nM | IC50 [2, 4]: 600 nM

CCCCCCCN(CCCCCSc1nc(-c2ccccc2)c(-c2ccccc2)[nH]1)C(=O)OCCC [Example 407, Propyl [5-(4,5-diphenyl-1H-imidazol-2-ylthio)pentyl]heptylcarbamate]
IC50 [3, 5]: 40 nM | IC50 [2, 4]: 800 nM

CCCCCCCN(CCCCCSc1nc(-c2ccccc2)c(-c2ccccc2)[nH]1)C(=O)OCc1ccccc1 [Example 408, (Phenylmethyl) [5-(4,5-diphenyl-1H-imidazol-2-ylthio)pentyl]heptylcarbamate]
IC50 [3, 5]: 9 nM | IC50 [2, 4]: 1300 nM

CCCCCCCN(CCCCCSc1nc(-c2ccc(OC)cc2)c(-c2ccc(OC)cc2)[nH]1)C(=O)Oc1ccccc1 [Example 410]
IC50 [3, 6]: 640 nM | IC50 [2, 4]: 30 nM

CCCCCCCN(CCCCCSc1nc(C(C)C)c(C(C)C)[nH]1)C(=O)Oc1ccccc1 [Example 411, phenyl N-[5-(4,5-bis(1-methylethyl)-1H-imidazol-2-ylthio]pentyl]-N-heptylcarbamat]
IC50 [3, 6]: 310 nM | IC50 [2, 4]: 500 nM

CCCCCCCN(CCCCCSc1nc(-c2ccc(OC)cc2)c(-c2ccc(OC)cc2)[nH]1)C(=O)OCC(C)C [Example 457]
IC50 [3, 5]: 834 nM | IC50 [2, 4]: 100 nM

CCCCCCCNCCCCCSc1nc(-c2ccccc2)c(-c2ccccc2)[nH]1 [N-[5(4,5-diphenyl-1H-imidazol-2-ylthio)pentyl]-1-heptanaminehydrochloride]
IC50 ([3]; intermediate, read-out: IC50 in the in vitro ACAT assay): 100 nM | IC50 ([2]; intermediate, read-out: IC50 in the macrophage assay): 6000 nM
